Data from US20070142392A1, “Uses of rifamycins” (ActivBiotics, Inc., priority 2005, published 2007).
Converted amounts (≈) assume the structure as drawn.

Experiments:
Assay type in all cases: cell-based
[1] = test system: E. coli; assay: MIC values, E. coli (Tables 1-4)
[2] = test system: S. aureus; assay: MIC values, S. aureus (Tables 1-4)
[3] = test system: E. faecalis; assay: MIC values, E. faecalis (Tables 1-4)
[4] = test system: H. flu
[5] = test system: S. pneumo.; assay: MIC values, S. pneumo. (Tables 1-4)

Structure (SMILES) | MIC E. coli [1] [µg/mL] | MIC S. aureus [2] [µg/mL] | MIC E. faecalis [3] [µg/mL] | MIC H. flu [4] [µg/mL] | MIC S. pneumo. [5] [µg/mL]
CO[C@H]1/C=C/O[C@@]2(C)Oc3c(C)c(O)c4c(=O)c(c5oc6cc(N7C[C@@H]8CCCN(C)[C@@H]8C7)cc(O)c6nc-5c4c3C2=O)NC(=O)/C(C)=C\C=C\[C@H](C)[C@H](O)[C@@H](C)[C@@H](O)[C@@H](C)[C@H](OC(C)=O)[C@@H]1C [Compound 58] | >8 | 0.03 (≈ 0.0319 µM) | 1 (≈ 1.06 µM) | 0.25 (≈ 0.266 µM) | 0.004 (≈ 0.00426 µM)
CO[C@H]1/C=C/O[C@@]2(C)Oc3c(C)c(O)c4c(=O)c(c5oc6cc(N7C[C@@H]8CCCN(C)[C@@H]8C7)cc(O)c6nc-5c4c3C2=O)NC(=O)/C(C)=C\C=C\[C@H](C)[C@H](O)[C@@H](C)[C@@H](O)[C@@H](C)[C@H](O)[C@@H]1C [Compound 59] | 4 (≈ 4.46 µM) | 0.004 (≈ 0.00446 µM) | 0.06 (≈ 0.0669 µM) | 0.12 (≈ 0.134 µM) | 0.001 (≈ 0.00111 µM)
CCOC(=O)NCC1CCN(c2cc(O)c3nc4c5c6c7c(C)c(O)c5c(=O)c(c-4oc3c2)NC(=O)/C(C)=C\C=C\[C@H](C)[C@H](O)[C@@H](C)[C@@H](O)[C@@H](C)[C@H](O)[C@H](C)[C@@H](OC)/C=C/O[C@@](C)(O7)C6=O)CC1 [Compound 60] | >8 | 0.008 (≈ 0.00848 µM) | 0.5 (≈ 0.53 µM) | 0.06 (≈ 0.0636 µM) | 0.0005 (≈ 0.00053 µM)
CO[C@H]1/C=C/O[C@@]2(C)Oc3c(C)c(O)c4c(=O)c(c5oc6cc(N7CCC(CCO)CC7)cc(O)c6nc-5c4c3C2=O)NC(=O)/C(C)=C\C=C\[C@H](C)[C@H](O)[C@@H](C)[C@@H](O)[C@@H](C)[C@H](OC(C)=O)[C@@H]1C [Compound 61] | >8 | 0.004 (≈ 0.00431 µM) | 1 (≈ 1.08 µM) | 0.25 (≈ 0.269 µM) | 0.00012 (≈ 0.000129 µM)
CO[C@H]1/C=C/O[C@@]2(C)Oc3c(C)c(O)c4c(=O)c(c5oc6cc(N7CCC(c8ccccc8)CC7)cc(O)c6nc-5c4c3C2=O)NC(=O)/C(C)=C\C=C\[C@H](C)[C@H](O)[C@@H](C)[C@@H](O)[C@@H](C)[C@H](O)[C@@H]1C [Compound 62] | >8 | 0.015 (≈ 0.0163 µM) | 8 (≈ 8.71 µM) | 0.5 (≈ 0.545 µM) | 0.008 (≈ 0.00871 µM)
COCCOC(=O)NC1CCN(c2cc(O)c3nc4c5c6c7c(C)c(O)c5c(=O)c(c-4oc3c2)NC(=O)/C(C)=C\C=C\[C@H](C)[C@H](O)[C@@H](C)[C@@H](O)[C@@H](C)[C@H](O)[C@H](C)[C@@H](OC)/C=C/O[C@@](C)(O7)C6=O)CC1 [Compound 63] | 8 (≈ 8.34 µM) | 0.008 (≈ 0.00834 µM) | 1 (≈ 1.04 µM) | 0.25 (≈ 0.261 µM) | 0.002 (≈ 0.00209 µM)
CO[C@H]1/C=C/O[C@@]2(C)Oc3c(C)c(O)c4c(=O)c(c5sc6cc(N7C[C@@H](C)N[C@@H](C)C7)ccc6nc-5c4c3C2=O)NC(=O)/C(C)=C\C=C\[C@H](C)[C@H](O)[C@@H](C)[C@@H](O)[C@@H](C)[C@H](OC(C)=O)[C@@H]1C [Compound 64] | 4 (≈ 4.38 µM) | 0.004 (≈ 0.00438 µM) | 0.12 (≈ 0.131 µM) | 0.25 (≈ 0.274 µM) | 0.00012 (≈ 0.000131 µM)
CO[C@H]1/C=C/O[C@@]2(C)Oc3c(C)c(O)c4c(=O)c(c5sc6cc(N7C[C@@H](C)N[C@@H](C)C7)ccc6nc-5c4c3C2=O)NC(=O)/C(C)=C\C=C\[C@H](C)[C@H](O)[C@@H](C)[C@@H](O)[C@@H](C)[C@H](O)[C@@H]1C [Compound 65] | 2 (≈ 2.3 µM) | 0.002 (≈ 0.0023 µM) | 0.12 (≈ 0.138 µM) | 0.12 (≈ 0.138 µM) | 0.00025 (≈ 0.000287 µM)
CO[C@H]1/C=C/O[C@@]2(C)Oc3c(C)c(O)c4c(=O)c(c5oc6cc(N7CCC(CCO)CC7)cc(O)c6nc-5c4c3C2=O)NC(=O)/C(C)=C\C=C\[C@H](C)[C@H](O)[C@@H](C)[C@@H](O)[C@@H](C)[C@H](O)[C@@H]1C [Compound 66] | 4 (≈ 4.51 µM) | 0.004 (≈ 0.00451 µM) | 0.12 (≈ 0.135 µM) | 0.12 (≈ 0.135 µM) | 0.0005 (≈ 0.000564 µM)
CCCS(=O)(=O)NC1CCN(c2cc(O)c3nc4c5c6c7c(C)c(O)c5c(=O)c(c-4oc3c2)NC(=O)/C(C)=C\C=C\[C@H](C)[C@H](O)[C@@H](C)[C@@H](O)[C@@H](C)[C@H](O)[C@H](C)[C@@H](OC)/C=C/O[C@@](C)(O7)C6=O)CC1 [Compound 67] | >8 | 0.008 (≈ 0.00831 µM) | 0.5 (≈ 0.519 µM) | 0.12 (≈ 0.125 µM) | 0.001 (≈ 0.00104 µM)
COC1C=COC2(C)Oc3c(C)c(O)c4c(=O)c(c5sc6cc(N7CC(C)N(CC8CC8)CC7C)ccc6nc-5c4c3C2=O)NC(=O)C(C)=CC=CC(C)C(O)C(C)C(O)C(C)C(OC(C)=O)C1C (centres unmarked) [Compound 68] | >8 | 0.06 (≈ 0.062 µM) | 2 (≈ 2.07 µM) | 0.5 (≈ 0.517 µM) | 0.0005 (≈ 0.000517 µM)
CO[C@H]1/C=C/O[C@@]2(C)Oc3c(C)c(O)c4c(=O)c(c5sc6cc(N7CCC(N(C)C)CC7)ccc6nc-5c4c3C2=O)NC(=O)/C(C)=C\C=C\[C@H](C)[C@H](O)[C@@H](C)[C@@H](O)[C@@H](C)[C@H](OC(C)=O)[C@@H]1C [Compound 69] | 4 (≈ 4.31 µM) | 0.015 (≈ 0.0162 µM) | 0.5 (≈ 0.539 µM) | 0.5 (≈ 0.539 µM) | 0.00025 (≈ 0.00027 µM)
COC1C=COC2(C)Oc3c(C)c(O)c4c(=O)c(c5sc6cc(N7CC(C)N(CC8CC8)CC7C)ccc6nc-5c4c3C2=O)NC(=O)C(C)=CC=CC(C)C(O)C(C)C(O)C(C)C(O)C1C (centres unmarked) [Compound 70] | >8 | 0.03 (≈ 0.0324 µM) | 1 (≈ 1.08 µM) | 1 (≈ 1.08 µM) | 0.001 (≈ 0.00108 µM)
CO[C@H]1/C=C/O[C@@]2(C)Oc3c(C)c(O)c4c(=O)c(c5oc6cc(N7CCC(C)(N(C)C)CC7)cc(O)c6nc-5c4c3C2=O)NC(=O)/C(C)=C\C=C\[C@H](C)[C@H](O)[C@@H](C)[C@@H](O)[C@@H](C)[C@H](OC(C)=O)[C@@H]1C [Compound 71] | 4 (≈ 4.25 µM) | 0.008 (≈ 0.0085 µM) | 0.25 (≈ 0.266 µM) | 0.5 (≈ 0.531 µM) | 0.00012 (≈ 0.000128 µM)
CO[C@H]1/C=C/O[C@@]2(C)Oc3c(C)c(O)c4c(=O)c(c5oc6cc(N7CCC(C)(NC(C)=O)CC7)cc(O)c6nc-5c4c3C2=O)NC(=O)/C(C)=C\C=C\[C@H](C)[C@H](O)[C@@H](C)[C@@H](O)[C@@H](C)[C@H](OC(C)=O)[C@@H]1C [Compound 72] | >8 | 0.008 (≈ 0.00838 µM) | 2 (≈ 2.09 µM) | 0.5 (≈ 0.524 µM) | 0.00025 (≈ 0.000262 µM)
CO[C@H]1/C=C/O[C@@]2(C)Oc3c(C)c(O)c4c(=O)c(c5oc6cc(N7CCC(C)(N(C)C)CC7)cc(O)c6nc-5c4c3C2=O)NC(=O)/C(C)=C\C=C\[C@H](C)[C@H](O)[C@@H](C)[C@@H](O)[C@@H](C)[C@H](O)[C@@H]1C [Compound 73] | 2 (≈ 2.22 µM) | 0.002 (≈ 0.00222 µM) | 0.03 (≈ 0.0334 µM) | 0.12 (≈ 0.133 µM) | 0.00025 (≈ 0.000278 µM)
CO[C@H]1/C=C/O[C@@]2(C)Oc3c(C)c(O)c4c(=O)c(c5oc6cc(N7CCC(C)(NC(C)=O)CC7)cc(O)c6nc-5c4c3C2=O)NC(=O)/C(C)=C\C=C\[C@H](C)[C@H](O)[C@@H](C)[C@@H](O)[C@@H](C)[C@H](O)[C@@H]1C [Compound 74] | >8 | 0.03 (≈ 0.0329 µM) | 0.5 (≈ 0.548 µM) | 0.12 (≈ 0.131 µM) | 0.001 (≈ 0.0011 µM)
CO[C@H]1/C=C/O[C@@]2(C)Oc3c(C)c(O)c4c(=O)c(c5oc6cc(N7CC[C@@H](N(C)C)C7)cc(O)c6nc-5c4c3C2=O)NC(=O)/C(C)=C\C=C\[C@H](C)[C@H](O)[C@@H](C)[C@@H](O)[C@@H](C)[C@H](OC(C)=O)[C@@H]1C [Compound 75] | 4 (≈ 4.38 µM) | 0.002 (≈ 0.00219 µM) | 0.12 (≈ 0.131 µM) | 0.25 (≈ 0.274 µM) | 0.00012 (≈ 0.000131 µM)
COC1C=COC2(C)Oc3c(C)c(O)c4c(=O)c(c5sc6cc(N7CCN8CCCC8C7)ccc6nc-5c4c3C2=O)NC(=O)C(C)=CC=CC(C)C(O)C(C)C(O)C(C)C(OC(C)=O)C1C (centres unmarked) [Compound 76] | 4 (≈ 4.32 µM) | 0.008 (≈ 0.00865 µM) | 0.5 (≈ 0.54 µM) | 0.25 (≈ 0.27 µM) | 0.00025 (≈ 0.00027 µM)
COC1C=COC2(C)Oc3c(C)c(O)c4c(=O)c(c5sc6cc(N7CCN8CCCC8C7)ccc6nc-5c4c3C2=O)NC(=O)C(C)=CC=CC(C)C(O)C(C)C(O)C(C)C(O)C1C (centres unmarked) [Compound 77] | 2 (≈ 2.26 µM) | 0.002 (≈ 0.00226 µM) | 0.25 (≈ 0.283 µM) | 0.12 (≈ 0.136 µM) | 0.00025 (≈ 0.000283 µM)
COC1C=COC2(C)Oc3c(C)c(O)c4c(=O)c(c5oc6cc(N7CCN8CCCC8C7)cc(O)c6nc-5c4c3C2=O)NC(=O)C(C)=CC=CC(C)C(O)C(C)C(O)C(C)C(O)C1C (centres unmarked) [Compound 87] | 4 (≈ 4.53 µM) | 0.002 (≈ 0.00226 µM) | 0.03 (≈ 0.034 µM) | 0.25 (≈ 0.283 µM) | 0.00025 (≈ 0.000283 µM)
COC1C=COC2(C)Oc3c(C)c(O)c4c(=O)c(c5oc6cc(N7CCN8CCCC8C7)cc(O)c6nc-5c4c3C2=O)NC(=O)C(C)=CC=CC(C)C(O)C(C)C(O)C(C)C(O)C1C (centres unmarked) [Compound 88] | 8 (≈ 9.06 µM) | 0.004 (≈ 0.00453 µM) | 0.03 (≈ 0.034 µM) | 0.25 (≈ 0.283 µM) | 0.00025 (≈ 0.000283 µM)
